Measurements published in patent publication US11192867B2, “Microbiocidal oxadiazole derivatives” (SYNGENTA PARTICIPATIONS AG, priority 2016, dated 2021).

Key:
Phakopsora pachyrhizi = assay: Fungicidal activity against Phakopsora pachyrhizi / soybean / leaf disc preventative (Asian soybean rust); type: in vivo; settings: foliar, 200 ppm in the applied formulation, soybean leaf disks, vs untreated control, read-out: disease control
Experimental: Leaf disks or leaf segments of various plant species are cut from plants grown in a greenhouse. The cut leaf disks or segments are placed in multiwell plates (24-well format) onto water agar. The leaf disks are sprayed with a test solution before (preventative) or after (curative) inoculation. Compounds to be tested are prepared as DMSO solutions (max. 10 mg/ml) which are diluted to the appropriate concentration with 0.025% Tween20 just before spraying. The inoculated leaf disks or segments are incubated under defined conditions (temperature, relative humidity, light, etc.) according to the respective test system. A single evaluation of disease level is carried out 3 to 14 days after inoculation, depending on the pathosystem. Percent disease control relative to the untreated check leaf disks or segments is then calculated. Soybean leaf disks are placed on water agar in multiwell plates (24-well format) and sprayed with the formulated test compound diluted in water. One day after application leaf discs are inoculated by spraying a spore suspension on the lower leaf surface. After an incubation period in a climate cabinet of 24-36 hours in darkness at 20° C. and 75% rh leaf disc are kept at 20° C. with 12 hours light/12 hours and 75% rh. The activity of a compound is assessed as percent disease control compared to untreated when an appropriate level of disease damage appears in untreated check leaf disks (12 to 14 days after application). The following compounds at 200 ppm in the applied formulation give at least 80% disease control in this test when compared to untreated control leaf disks under the same conditions, which show extensive disease development.

[1] = test system: Glomerella lagenarium (Colletotrichum lagenarium); assay: Fungicidal activity against Glomerella lagenarium (Colletotrichum lagenarium) liquid culture / cucumber / preventative (anthracnose); type: cell-based; settings: Colletotrichum orbiculare, 72 h; 20 ppm in the applied formulation; liquid culture (PDB), growth inhibition measured photometrically 3 to 4 days after application; vs untreated control; read-out: disease control
Experimental: Mycelia fragments or conidia suspensions of a fungus prepared either freshly from liquid cultures of the fungus or from cryogenic storage, are directly mixed into nutrient broth. DMSO solutions of the test compound (max. 10 mg/ml) are diluted with 0.025% Tween20 by a factor of 50 and 10 μl of this solution is pipetted into a microtiter plate (96-well format). The nutrient broth containing the fungal spores/mycelia fragments is then added to give an end concentration of the tested compound. The test plates are incubated in the dark at 24° C. and 96% relative humidity. The inhibition of fungal growth is determined photometrically after 2 to 7 days, depending on the pathosystem, and percent antifungal activity relative to the untreated check is calculated.
Conidia of the fungus from cryogenic storage are directly mixed into nutrient broth (PDB—potato dextrose broth). After placing a (DMSO) solution of test compound into a microtiter plate (96-well format), the nutrient broth containing the fungal spores is added. The test plates are incubated at 24° C. and the inhibition of growth is measured photometrically 3 to 4 days after application.
The following compounds at 20 ppm in the applied formulation give at least 80% disease control in this test when compared to untreated control under the same conditions, which show extensive disease development.

[2] = test system: Puccinia recondita f. sp. Tritici; assay: Fungicidal activity against Puccinia recondita f. sp. Tritici / wheat / leaf disc preventative (brown rust); type: in vivo; settings: foliar, 200 ppm in the applied formulation, wheat leaf segments cv. Kanzler, inoculated 1 day after application, vs untreated control, read-out: disease control
Experimental: Leaf disks or leaf segments of various plant species are cut from plants grown in a greenhouse. The cut leaf disks or segments are placed in multiwell plates (24-well format) onto water agar. The leaf disks are sprayed with a test solution before (preventative) or after (curative) inoculation. Compounds to be tested are prepared as DMSO solutions (max. 10 mg/ml) which are diluted to the appropriate concentration with 0.025% Tween20 just before spraying. The inoculated leaf disks or segments are incubated under defined conditions (temperature, relative humidity, light, etc.) according to the respective test system. A single evaluation of disease level is carried out 3 to 14 days after inoculation, depending on the pathosystem. Percent disease control relative to the untreated check leaf disks or segments is then calculated. Wheat leaf segments cv. Kanzler were placed on agar in multiwell plates (24-well format) and sprayed with the formulated test compound diluted in water. The leaf disks were inoculated with a spore suspension of the fungus 1 day after application. The inoculated leaf segments were incubated at 19° C. and 75% relative humidity (rh) under a light regime of 12 hours light/12 hours darkness in a climate cabinet and the activity of a compound was assessed as percent disease control compared to untreated when an appropriate level of disease damage appears in untreated check leaf segments (7 to 9 days after application). The following compounds at 200 ppm in the applied formulation give at least 80% disease control in this test when compared to untreated control leaf disks under the same conditions, which show extensive disease development.

COc1cccc(CON=CCNC(=O)c2ccc(-c3noc(C(F)(F)F)n3)cc2)c1 [Compound 1.62, N-[2-[(3-methoxyphenyl)methoxyimino]ethyl]-4-[5-(trifluoromethyl)-1,2,4-oxadiazol-3-yl]benzamide]
≥ 80%: pest or weed control at 200 ppm (Phakopsora pachyrhizi) | inhibition of growth at 20 ppm [1] | pest or weed control at 200 ppm [2]

COc1ccc(CON=CCNC(=O)c2ccc(-c3noc(C(F)(F)F)n3)cc2)cc1 [Compound 1.64, N-[2-[(4-methoxyphenyl)methoxyimino]ethyl]-4-[5-(trifluoromethyl)-1,2,4-oxadiazol-3-yl]benzamide]
≥ 80%: pest or weed control at 200 ppm (Phakopsora pachyrhizi) | inhibition of growth at 20 ppm [1] | pest or weed control at 200 ppm [2]

O=C(O)CON=CCNC(=O)c1ccc(-c2noc(C(F)(F)F)n2)cc1 [Compound 1.65, 2-[2-[[4-[5-(trifluoromethyl)-1,2,4-oxadiazol-3-yl]benzoyl]amino]ethylideneamino] oxyacetic acid]
≥ 80%: pest or weed control at 200 ppm (Phakopsora pachyrhizi) | inhibition of growth at 20 ppm [1] | pest or weed control at 200 ppm [2]

O=C(NCC=NOCc1ccccc1Cl)c1ccc(-c2noc(C(F)(F)F)n2)cc1 [Compound 1.67, N-[2-[(2-chlorophenyl)methoxyimino]ethyl]-4-[5-(trifluoromethyl)-1,2,4-oxadiazol-3-yl]benzamide]
≥ 80%: pest or weed control at 200 ppm (Phakopsora pachyrhizi) | inhibition of growth at 20 ppm [1] | pest or weed control at 200 ppm [2]

COc1ccccc1CON=CCNC(=O)c1ccc(-c2noc(C(F)(F)F)n2)cc1 [Compound 1.68, N-[2-[(2-methoxyphenyl)methoxyimino]ethyl]-4-[5-(trifluoromethyl)-1,2,4-oxadiazol-3-yl]benzamide]
≥ 80%: pest or weed control at 200 ppm (Phakopsora pachyrhizi) | inhibition of growth at 20 ppm [1] | pest or weed control at 200 ppm [2]

O=C(NCC=NOCc1ccccc1F)c1ccc(-c2noc(C(F)(F)F)n2)cc1 [Compound 1.69, N-[2-[(2-fluorophenyl)methoxyimino]ethyl]-4-[5-(trifluoromethyl)-1,2,4-oxadiazol-3-yl]benzamide]
≥ 80%: pest or weed control at 200 ppm (Phakopsora pachyrhizi) | inhibition of growth at 20 ppm [1] | pest or weed control at 200 ppm [2]

O=C(NCC=NOCc1ccc(F)cc1Cl)c1ccc(-c2noc(C(F)(F)F)n2)cc1 [Compound 1.71, N-[2-[(2-chloro-4-fluoro-phenyl)methoxy-imino]ethyl]-4-[5-(trifluoromethyl)-1,2,4-oxadiazol-3-yl]benzamide]
≥ 80%: pest or weed control at 200 ppm (Phakopsora pachyrhizi) | inhibition of growth at 20 ppm [1] | pest or weed control at 200 ppm [2]

O=C(NCC=NOCC=C(Cl)Cl)c1ccc(-c2noc(C(F)(F)F)n2)cc1 [Compound 1.79, N-[2-(3,3-dichloroallyloxy-imino)ethyl]-4-[5-(trifluoromethyl)-1,2,4-oxadiazol-3-yl]benzamide]
≥ 80%: pest or weed control at 200 ppm (Phakopsora pachyrhizi) | inhibition of growth at 20 ppm [1] | pest or weed control at 200 ppm [2]

CC(C)=CCON=CCNC(=O)c1ccc(-c2noc(C(F)(F)F)n2)cc1 [Compound 1.80, N-[2-(3-methylbut-2-enoxyimino)ethyl]-4-[5-(trifluoromethyl)-1,2,4-oxadiazol-3-yl]benzamide]
≥ 80%: pest or weed control at 200 ppm (Phakopsora pachyrhizi) | inhibition of growth at 20 ppm [1] | pest or weed control at 200 ppm [2]

O=C(NCC=NOCc1ccccc1)c1ccc(-c2noc(C(F)(F)F)n2)cc1 [Compound 1.90, N-(2-benzyloxyimino-ethyl)-4-[5-(trifluoromethyl)-1,2,4-oxadiazol-3-yl]benzamide]
≥ 80%: pest or weed control at 200 ppm (Phakopsora pachyrhizi) | inhibition of growth at 20 ppm [1] | pest or weed control at 200 ppm [2]

O=C(O)Cc1ccccc1CON=CCNC(=O)c1ccc(-c2noc(C(F)(F)F)n2)cc1 [Compound 1.92, 2-[2-[[2-[[4-[5-(trifluoromethyl)-1,2,4-oxadiazol-3-yl]benzoyl]amino]ethylideneamino]oxymethyl]phenyl] acetic acid]
≥ 80%: pest or weed control at 200 ppm (Phakopsora pachyrhizi) | inhibition of growth at 20 ppm [1] | pest or weed control at 200 ppm [2]

CC(CNC(=O)c1ccc(-c2noc(C(F)(F)F)n2)cc1)=NOCC=CCl [Compound 1.121, N-[2-(3-chloroallyloxy-imino)propyl]-4-[5-(trifluoromethyl)-1,2,4-oxadiazol-3-yl]benzamide]
≥ 80%: pest or weed control at 200 ppm (Phakopsora pachyrhizi) | inhibition of growth at 20 ppm [1] | pest or weed control at 200 ppm [2]

CC(CNC(=O)c1ccc(-c2noc(C(F)(F)F)n2)cc1)=NOCC=C(Cl)Cl [Compound 1.122, N-[2-(3,3-dichloroallyloxy-imino)propyl]-4-[5-(trifluoromethyl)-1,2,4-oxadiazol-3-yl]benzamide]
≥ 80%: pest or weed control at 200 ppm (Phakopsora pachyrhizi) | inhibition of growth at 20 ppm [1] | pest or weed control at 200 ppm [2]

CC(C)=CCON=C(C)CNC(=O)c1ccc(-c2noc(C(F)(F)F)n2)cc1 [Compound 1.123, N-[2-(3-methylbut-2-enoxyimino)propyl]-4-[5-(trifluoromethyl)-1,2,4-oxadiazol-3-yl]benzamide]
≥ 80%: pest or weed control at 200 ppm (Phakopsora pachyrhizi) | inhibition of growth at 20 ppm [1] | pest or weed control at 200 ppm [2]

CC(CNC(=O)c1ccc(-c2noc(C(F)(F)F)n2)cc1)=NOC/C=C\Cl [Compound 1.124, N-[2-[(Z)-3-chloroallyloxy]iminopropyl]-4-[5-(trifluoromethyl)-1,2,4-oxadiazol-3-yl]benzamide]
≥ 80%: pest or weed control at 200 ppm (Phakopsora pachyrhizi) | inhibition of growth at 20 ppm [1] | pest or weed control at 200 ppm [2]

CC(CNC(=O)c1ccc(-c2noc(C(F)(F)F)n2)cc1)=NOC(C)(C)C [Compound 1.132, N-(2-tert-butoxyiminopropyl)-4-[5-(trifluoromethyl)-1,2,4-oxadiazol-3-yl]benzamide]
≥ 80%: pest or weed control at 200 ppm (Phakopsora pachyrhizi) | inhibition of growth at 20 ppm [1] | pest or weed control at 200 ppm [2]

CC(CNC(=O)c1ccc(-c2noc(C(F)(F)F)n2)cc1)=NOCC(F)(F)F [Compound 1.139, N-[2-(2,2,2-trifluoroethoxy-imino)propyl]-4-[5-(trifluoromethyl)-1,2,4-oxadiazol-3-yl]benzamide]
≥ 80%: pest or weed control at 200 ppm (Phakopsora pachyrhizi) | inhibition of growth at 20 ppm [1] | pest or weed control at 200 ppm [2]

C=C(Cl)CON=C(C)CNC(=O)c1ccc(-c2noc(C(F)(F)F)n2)cc1 [Compound 1.144, N-[2-(2-chloroallyloxy-imino)propyl]-4-[5-(trifluoromethyl)-1,2,4-oxadiazol-3-yl]benzamide]
≥ 80%: pest or weed control at 200 ppm (Phakopsora pachyrhizi) | inhibition of growth at 20 ppm [1] | pest or weed control at 200 ppm [2]
